Data taken from patent publication US20260240154A1, “GLOBODERA PALLIDA CONTROL AGENT” (National Agriculture and Food Research Organization, priority 2021, published 2026).

Assays:
Gp = settings: relative to natural hatching factor; cited from earlier work
Globodera pallida eggs = assay: Hatching accelerating effect evaluation test for Globodera pallida (liquid immersion test); format: in vivo; settings: for Average hatching rate (%): 1 mL of 2 ppm test reagent solution added to 1 mL egg suspension, 16° C., about 2 weeks, two replicates; for Average hatching rate at 1 ppm (%): optically active compounds
Method: A predetermined amount of compound (I) was dissolved in an aqueous solution containing 0.05% (v/v) of polyoxyethylene sorbitan monolaurate (Tween20) to prepare a 100 ppm solution of compound (I).
The 100 ppm solution of compound (I) was further diluted with a 0.05% (v/v) Tween20 aqueous solution to prepare a test reagent solution with a concentration of compound (I) of 2 ppm.
The cysts of Globodera pallida increased in a greenhouse before the previous year were isolated from the soil, immersed in distilled water and kept at 16° C. for about 2 weeks were crushed with a scalpel and the eggs were taken out to obtain an egg suspension. After preparing a density of approximately 600 eggs per mL, Tween 20 was added to a concentration of 0.05% (v/v). 1 mL of this egg suspension was put into a 13.5 mL screw cap glass vial (inner diameter: 2.1 cm, height: 4.8 cm), and 1 mL each of a test reagent solution with a concentration of compound (I) of 2 ppm was added. It was covered and kept at 16° C.
About 2 weeks later, 1 mL was taken out, and the number of hatching larvae and the number of eggs were counted under a stereomicroscope. Two replicates were installed for each compound, and the average hatching rate was calculated.

Globodera pallida [1] = assay: Reduction test of Globodera pallida egg density (pot test); format: in vivo; settings: 30 days, three pots; for Average density reduction rate at 10 ppm (%): 32 mL of 10 ppm test reagent solution in 800 mL field soil; for Average density reduction rate at 100 ppm (%): 32 mL of 100 ppm test reagent solution in 800 mL field soil
Method: After 20 mg of compound (I) was dissolved in 1 mL of dimethylsulfoxide, 199 mL of a 0.1% polyoxyethylene sorbitan monolaurate aqueous solution was added thereto, to obtain a test reagent solution with a concentration of compound (I) of 100 ppm. Further, this was diluted 10-fold with distilled water, to prepare a 10 ppm test reagent solution.
Soil was collected from a field infected with Globodera pallida, and the egg density was investigated, as follows. The cysts were separated from 100 g of the dried soil by dry flotation-sieving method and crushed to release nematode eggs, and the number of eggs was counted under a stereomicroscope. This was taken as the initial density.
32 mL of the test reagent solution adjusted to 100 ppm or 10 ppm was added to 800 mL of the collected field soil, followed by stirring well. It was packed in a plastic pot (upper diameter: 10.5 cm, height: 22.5 cm), and placed in a greenhouse without any planting for 30 days. Each pot was watered with 26 mL of distilled water every 6 to 7 days.
After 30 days, the soil was spread on an aluminum bat and air-dried, and the cysts were separated from 100 g of the dry soil in the same manner as above, to count the number of remaining eggs (density after treatment). Three pots were installed per concentration for each compound, and the average density reduction rate was calculated from the initial density and the density after treatment.

Globodera pallida [2] = assay: Reduction test of Globodera pallida egg density (field plot test); format: in vivo; settings: for Gp density reduction rate: about 80 days, average of four plots
Method: With reference to Formulation Example 4, a 10% solution of compound No. 2 was prepared. This 10% solution was diluted with distilled water, to prepare test reagent solutions with concentrations of 300 ppm, 30 ppm, and 3 ppm.
Round plots (diameter:30 cm) were installed in a field infected with Globodera pallida, and the reducing effect of reagent solution treatment on the nematode egg density in soil was investigated. Each plot was prepared by burying a cylinder (30 cm in diameter and 25 cm in height) made of polyethylene sheet to a depth of 20 cm. Test plots were installed in the field and soil samples in each plot were collected for the initial density survey. Then, the test reagent solution of each concentration was sprayed at a ratio of 5 or 1 L per square meter and the soil in the plot was mixed with a shovel to a depth of 15 cm. As a result, treatments with four different doses of compound (1500, 300, 30 and 3 g per 10 a) were prepared.
About 80 days later, the soil in each plots was collected, and the nematode egg density in the soil was investigated, as follows. The cysts were separated from 100 g of dried soil by a sieving cyst flow method, crushed with a scalpel to extract eggs, suspended in distilled water to extract a certain amount, and the number of eggs was counted under a stereomicroscope.
Four plots were installed for each concentration, and the average density reduction rate was calculated from the initial density and final density.

N#C[S-].[Na+] [sodium thiocyanate]
Hatching activity, % of that of the natural hatching factor (Gp): about 30%

CC1(C)NC(=O)CC1c1ccc(F)c(F)c1 (stereo not shown) [Compound 12, 5,5-dimethyl-4-(3,4-difluoro-phenyl)-2-pyrrolidinone]
Average hatching rate (%) (Globodera pallida eggs): 65.4%
Average density reduction rate at 10 ppm (%) (Globodera pallida [1]): 97.7%
Average density reduction rate at 100 ppm (%) (Globodera pallida [1]): 98.8%

Cc1ccc(C2CCC(=O)NC2(C)C)cc1 (stereo not shown) [Compound A-3, 6,6-dimethyl-5-(p-tolyl)piperidin-2-one]
Average hatching rate (%) (Globodera pallida eggs): 97.2%
Average density reduction rate at 10 ppm (%) (Globodera pallida [1]): 94.9%
Average density reduction rate at 100 ppm (%) (Globodera pallida [1]): 97.2%

Cc1ccc(C2CC(=O)OC2(C)C)cc1 (stereo not shown) [Compound 18, 5,5-dimethyl-4-(p-tolyl)dihydrofuran-2(3H)-one]
Average hatching rate (%) (Globodera pallida eggs): 97.1%
Average density reduction rate at 10 ppm (%) (Globodera pallida [1]): 81.7%
Average density reduction rate at 100 ppm (%) (Globodera pallida [1]): 96.2%

Cc1ccc(C2CC(=O)NC2(C)C)cc1 (stereo not shown) [Compound 2, 5,5-dimethyl-4-(4-methylphenyl)-2-pyrrolidinone]
Gp density reduction rate (Globodera pallida [2]; dose 3 g/10 a): 65.6%
Gp density reduction rate (Globodera pallida [2]; dose 300 g/10 a): 94.4%
Gp density reduction rate (Globodera pallida [2]; dose 1500 g/10 a): 98.4%
Reduction of Gp density in the soil (Globodera pallida [2]; dose of 30 g or more per 10a): ≥ 80%
Gp density reduction rate (Globodera pallida [2]; dose printed as 'g/10 a' (third dose level)): 88.8%
Average hatching rate (%) (Globodera pallida eggs): 94.3%
Average density reduction rate at 10 ppm (%) (Globodera pallida [1]): 95.4%
Average density reduction rate at 100 ppm (%) (Globodera pallida [1]): 98.0%

CC1(C)NC(=O)CC1c1ccc(Br)cc1 (stereo not shown) [Compound 4, 5,5-dimethyl-4-(4-bromophenyl)-2-pyrrolidinone]
Average hatching rate (%) (Globodera pallida eggs): 97.9%
Average density reduction rate at 10 ppm (%) (Globodera pallida [1]): 98.8%
Average density reduction rate at 100 ppm (%) (Globodera pallida [1]): 98.9%

sodium metavanadate
Hatching activity, % of that of the natural hatching factor (Gp): ~70%

Cc1ccc(C2CC(=O)NC2(C)C)c(C)c1 (stereo not shown) [Compound 14, 5,5-dimethyl-4-(2,4-dimethyl-phenyl)-2-pyrrolidinone]
Average hatching rate (%) (Globodera pallida eggs): 37.6%

CCc1ccc(C2CC(=O)OC2(C)C)cc1 [Compound D-5]
Average hatching rate (%) (Globodera pallida eggs): 56.6%

CC1(C)NC(=O)CC1c1ccc(Cl)cc1 (single isomer, unassigned) [3 (−), 5,5-dimethyl-4-(4-chlorophenyl)-2-pyrrolidinone]
Average hatching rate at 1 ppm (%) (Globodera pallida eggs): 92.0%

COC(=O)c1ccc(C2CCC(=O)NC2(C)C)cc1 (stereo not shown) [Compound A-4]
Average hatching rate (%) (Globodera pallida eggs): 68.8%

Cc1ccc(C)c(C2CC(=O)NC2(C)C)c1 (stereo not shown) [Compound 11, 5,5-dimethyl-4-(2,5-dimethyl-phenyl)-2-pyrrolidinone]
Average hatching rate (%) (Globodera pallida eggs): 72.9%

CC1(C)NS(=O)(=O)CC1c1ccc(Cl)cc1 (single isomer, unassigned) [B-12 (−), 4-(4-chlorophenyl)-3,3-dimethylisothiazolidine-1,1-dioxide]
Average hatching rate at 1 ppm (%) (Globodera pallida eggs): 94.6%

CC1(C)NC(=O)CC1c1ccc(Cl)cc1 (stereo not shown) [Compound 3, 5,5-dimethyl-4-(4-chlorophenyl)-2-pyrrolidinone]
Average hatching rate (%) (Globodera pallida eggs): 95.2%
Average density reduction rate at 10 ppm (%) (Globodera pallida [1]): 97.4%
Average density reduction rate at 100 ppm (%) (Globodera pallida [1]): 98.5%

Cc1ccc(C)c(C2CC(=S)OC2(C)C)c1 (stereo not shown) [Compound B-3]
Average hatching rate (%) (Globodera pallida eggs): 21.2%

[Na+].[Na+].[Na+].[O]=[V]([O-])([O-])[O-] [sodium orthovanadate]
Hatching activity, % of that of the natural hatching factor (Gp): ~60%

Cc1ccc(C2=CC(=O)OC2(C)C)c(C)c1 [Compound D-15]
Average hatching rate (%) (Globodera pallida eggs): 94.9%
Average density reduction rate at 10 ppm (%) (Globodera pallida [1]): 85.8%
Average density reduction rate at 100 ppm (%) (Globodera pallida [1]): 98.2%

CC1(C)OC(=O)C=C1c1ccc2ccccc2c1 [Compound D-11]
Average hatching rate (%) (Globodera pallida eggs): 59.0%

Cc1ccc(C2CC(=O)OC2(C)C)c(C)c1 [Compound D-2]
Average hatching rate (%) (Globodera pallida eggs): 94.7%

CC1C(=O)NC(C)(C)C1c1ccccc1 (stereo not shown) [Compound 15, 3,5,5-trimethyl-4-phenyl-2-pyrrolidinone]
Average hatching rate (%) (Globodera pallida eggs): 77.3%

CC1(C)OC(=S)CC1c1ccccc1 (stereo not shown) [Compound B-1]
Average hatching rate (%) (Globodera pallida eggs): 70.4%

Cc1ccc(C2CC(=S)OC2(C)C)cc1 (stereo not shown) [Compound B-2, 5,5-dimethyl-4-(p-tolyl)dihydrofuran-2 (3H)-thione]
Average hatching rate (%) (Globodera pallida eggs): 86.6%

CC1=NN(c2ccc([N+](=O)[O-])cc2)C(=O)C1[N+](=O)[O-] (stereo not shown) [picrolonic acid]
Hatching activity, % of that of the natural hatching factor (Gp): about 30%

CC1(C)NS(=O)(=O)CC1c1ccc(Cl)cc1 (stereo not shown) [Compound B-12, 4-(4-chlorophenyl)-3,3-dimethylisothiazolidine-1,1-dioxide]
Average hatching rate (%) (Globodera pallida eggs): 93.0%
